Data taken from ChEMBL document CHEMBL1909046, “DrugMatrix in vitro pharmacology data”.

Columns and labels:
Melanocortin receptor 3 = Melanocortin receptor 3 (Homo sapiens, UniProt P41968); assay type: cell membranes, HEK293, Membrane; details: hek293; also: in other assays of this panel Not Active means under 50% inhibition at 10 µM
Thromboxane-A synthase = target: T1, Thromboxane-A synthase (Homo sapiens, UniProt P24557); test: biochemical; assay type: tissue-based, Platelet; details: platelet;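 also: enzyme inhibition assay with PGH2 supplied as substrate; in other assays of this panel Not Active means under 50% inhibition at 10 µM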
T1 sequence (P24557 whole entry): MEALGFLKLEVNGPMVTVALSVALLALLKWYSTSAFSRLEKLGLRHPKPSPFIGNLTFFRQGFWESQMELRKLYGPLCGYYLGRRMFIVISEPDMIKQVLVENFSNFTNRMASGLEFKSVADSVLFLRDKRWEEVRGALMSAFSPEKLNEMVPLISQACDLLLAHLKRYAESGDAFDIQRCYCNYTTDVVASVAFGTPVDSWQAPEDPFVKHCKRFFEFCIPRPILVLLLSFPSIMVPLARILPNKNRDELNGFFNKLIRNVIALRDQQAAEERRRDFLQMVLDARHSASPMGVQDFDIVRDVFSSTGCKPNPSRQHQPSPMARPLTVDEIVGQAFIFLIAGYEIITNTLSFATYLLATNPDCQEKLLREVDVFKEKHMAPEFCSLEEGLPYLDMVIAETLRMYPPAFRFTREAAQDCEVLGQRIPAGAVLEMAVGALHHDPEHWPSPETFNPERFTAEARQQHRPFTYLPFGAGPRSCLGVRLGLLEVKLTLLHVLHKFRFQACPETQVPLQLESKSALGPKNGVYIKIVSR

Substance-K receptor = target: T2, Substance-K receptor (Homo sapiens, UniProt P21452); assay type: cell membranes, CHO, Membrane; details: cho; also: in other assays of this panel Not Active means under 50% inhibition at 10 µM
T2 sequence (P21452 whole entry): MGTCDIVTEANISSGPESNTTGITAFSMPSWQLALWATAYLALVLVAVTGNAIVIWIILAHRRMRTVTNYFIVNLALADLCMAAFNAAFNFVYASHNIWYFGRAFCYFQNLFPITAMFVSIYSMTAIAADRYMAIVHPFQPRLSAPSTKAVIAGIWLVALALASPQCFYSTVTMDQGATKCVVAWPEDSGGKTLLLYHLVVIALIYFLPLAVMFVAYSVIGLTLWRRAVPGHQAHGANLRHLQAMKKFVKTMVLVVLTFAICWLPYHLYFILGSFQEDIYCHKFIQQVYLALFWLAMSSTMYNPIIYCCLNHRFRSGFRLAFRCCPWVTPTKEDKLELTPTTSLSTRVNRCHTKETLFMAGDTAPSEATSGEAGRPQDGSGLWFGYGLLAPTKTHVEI

[1] = target: T3, Nitric oxide synthase, inducible (Mus musculus, UniProt P29477); parameters: species or system Escherichia coli;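 also: inhibition of iNOS enzyme activity measured with L-arginine as substrate; in other assays of this panel Not Active means under 50% inhibition at 10 µM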
T3 sequence (P29477 whole entry): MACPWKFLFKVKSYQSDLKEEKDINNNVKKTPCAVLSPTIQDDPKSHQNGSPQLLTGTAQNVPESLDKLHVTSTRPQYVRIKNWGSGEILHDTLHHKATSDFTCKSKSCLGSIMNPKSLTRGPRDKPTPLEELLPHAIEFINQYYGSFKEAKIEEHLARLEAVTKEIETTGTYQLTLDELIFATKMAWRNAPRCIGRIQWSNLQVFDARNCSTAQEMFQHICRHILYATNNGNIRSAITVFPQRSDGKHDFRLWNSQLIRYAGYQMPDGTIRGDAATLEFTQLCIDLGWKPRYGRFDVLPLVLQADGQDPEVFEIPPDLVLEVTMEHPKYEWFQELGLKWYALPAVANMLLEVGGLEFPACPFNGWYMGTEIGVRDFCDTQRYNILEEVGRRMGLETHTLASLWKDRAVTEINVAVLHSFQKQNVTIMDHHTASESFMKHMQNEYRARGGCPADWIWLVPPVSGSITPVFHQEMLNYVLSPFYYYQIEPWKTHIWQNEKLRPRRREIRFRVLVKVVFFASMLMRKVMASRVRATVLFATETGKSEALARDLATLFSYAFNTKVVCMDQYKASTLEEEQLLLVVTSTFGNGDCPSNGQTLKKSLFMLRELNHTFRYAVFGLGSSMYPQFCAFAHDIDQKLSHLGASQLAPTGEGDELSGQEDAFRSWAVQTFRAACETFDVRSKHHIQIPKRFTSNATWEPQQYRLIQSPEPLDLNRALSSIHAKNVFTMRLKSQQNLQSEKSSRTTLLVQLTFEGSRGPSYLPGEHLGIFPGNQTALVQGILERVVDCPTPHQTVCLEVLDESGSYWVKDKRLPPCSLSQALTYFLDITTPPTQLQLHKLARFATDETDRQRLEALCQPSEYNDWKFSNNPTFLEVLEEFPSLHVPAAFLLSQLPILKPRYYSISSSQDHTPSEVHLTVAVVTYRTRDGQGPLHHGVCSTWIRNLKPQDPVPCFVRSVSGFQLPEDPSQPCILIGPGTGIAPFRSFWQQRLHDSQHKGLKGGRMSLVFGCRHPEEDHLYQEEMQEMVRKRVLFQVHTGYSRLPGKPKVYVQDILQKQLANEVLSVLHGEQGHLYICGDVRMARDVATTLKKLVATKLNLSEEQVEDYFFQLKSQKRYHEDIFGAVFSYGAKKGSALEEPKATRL

[2] = DRUGMATRIX: Purinergic P2X radioligand binding (ligand: [3H] alpha, beta-Methylene-ATP); assay type: cell membranes, Oryctolagus cuniculus, New Zealand albino, Urinary bladder, Membrane; details: Not Active = under 50% inhibition at 10 µM
[3] = target: T4, C-X-C chemokine receptor type 2 (Homo sapiens, UniProt P25025); assay type: cell membranes, Membrane; details: cho-k1; also: in other assays of this panel Not Active means under 50% inhibition at 10 µM
T4 sequence (P25025 whole entry): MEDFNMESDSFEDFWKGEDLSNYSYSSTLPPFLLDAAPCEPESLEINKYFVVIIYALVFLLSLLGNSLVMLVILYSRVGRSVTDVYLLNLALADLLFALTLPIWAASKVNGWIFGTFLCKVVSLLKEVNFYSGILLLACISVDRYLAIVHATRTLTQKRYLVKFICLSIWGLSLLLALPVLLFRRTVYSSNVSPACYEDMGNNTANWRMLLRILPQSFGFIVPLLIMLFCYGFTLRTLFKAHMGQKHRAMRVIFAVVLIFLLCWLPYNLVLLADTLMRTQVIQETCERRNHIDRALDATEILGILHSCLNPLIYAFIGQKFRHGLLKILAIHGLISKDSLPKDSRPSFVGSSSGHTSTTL

Vasopressin V1a receptor = Vasopressin V1a receptor (Homo sapiens, UniProt P37288); assay type: cell membranes, Membrane; details: hek293; also: in other assays of this panel Not Active means under 50% inhibition at 10 µM
Sequence of Vasopressin V1a receptor (P37288 whole entry): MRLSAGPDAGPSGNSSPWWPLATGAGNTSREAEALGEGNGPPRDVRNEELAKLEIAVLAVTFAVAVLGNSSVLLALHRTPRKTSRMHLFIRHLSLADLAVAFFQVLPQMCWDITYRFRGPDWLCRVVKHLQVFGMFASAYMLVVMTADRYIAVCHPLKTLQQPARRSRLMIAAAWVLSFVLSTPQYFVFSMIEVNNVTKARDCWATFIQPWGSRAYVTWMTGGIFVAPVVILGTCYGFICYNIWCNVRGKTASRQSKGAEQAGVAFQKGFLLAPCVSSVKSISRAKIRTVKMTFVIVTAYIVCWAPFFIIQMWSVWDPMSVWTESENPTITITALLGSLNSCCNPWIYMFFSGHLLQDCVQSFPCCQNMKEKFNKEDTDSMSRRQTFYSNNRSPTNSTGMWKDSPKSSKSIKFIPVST

Sequence of Melanocortin receptor 3 (P41968 whole entry): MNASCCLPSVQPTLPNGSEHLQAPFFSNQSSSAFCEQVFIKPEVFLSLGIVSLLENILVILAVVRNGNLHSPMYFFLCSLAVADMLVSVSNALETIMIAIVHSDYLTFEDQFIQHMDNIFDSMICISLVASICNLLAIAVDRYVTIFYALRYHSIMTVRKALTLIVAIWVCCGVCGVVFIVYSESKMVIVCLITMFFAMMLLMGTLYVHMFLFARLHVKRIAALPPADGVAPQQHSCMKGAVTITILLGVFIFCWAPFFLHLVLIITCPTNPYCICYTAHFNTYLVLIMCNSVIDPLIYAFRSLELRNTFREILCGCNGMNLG

C[C@]12CCC(=O)C=C1CC[C@@H]1[C@@H]2CC[C@@]2(C)[C@H]1CC[C@]2(C)O [METHYLTESTOSTERONE]
Not Active: IC50 (Melanocortin receptor 3) | IC50 (Thromboxane-A synthase) | IC50 (Substance-K receptor) | IC50 [1] | IC50 [2] | Ki [2] | IC50 [3] | IC50 (Vasopressin V1a receptor)

O=c1oc2ccccc2c(O)c1Cc1c(O)c2ccccc2oc1=O [DICUMAROL]
Not Active: IC50 (Melanocortin receptor 3) | IC50 (Thromboxane-A synthase) | IC50 (Substance-K receptor) | IC50 [1] | IC50 [2] | Ki [2] | IC50 [3] | IC50 (Vasopressin V1a receptor)

N=C(N)NCCN1CCCCCCC1 [GUANETHIDINE]
Not Active: IC50 (Melanocortin receptor 3) | IC50 (Thromboxane-A synthase) | IC50 (Substance-K receptor) | IC50 [1] | IC50 [2] | Ki [2] | IC50 [3] | IC50 (Vasopressin V1a receptor)

Cc1cc(C2CCCCC2)n(O)c(=O)c1 [CICLOPIROX]
Not Active: IC50 (Melanocortin receptor 3) | IC50 (Thromboxane-A synthase) | IC50 (Substance-K receptor) | IC50 [1] | IC50 [2] | Ki [2] | IC50 [3] | IC50 (Vasopressin V1a receptor)

CCOc1ccc(NC(C)=O)cc1 [PHENACETIN]
Not Active: IC50 (Melanocortin receptor 3) | IC50 (Thromboxane-A synthase) | IC50 (Substance-K receptor) | IC50 [1] | IC50 [2] | Ki [2] | IC50 [3] | IC50 (Vasopressin V1a receptor)

NC1=NC(=O)C(c2ccccc2)O1 (stereo not drawn) [PEMOLINE]
Not Active: IC50 (Melanocortin receptor 3) | IC50 (Thromboxane-A synthase) | IC50 (Substance-K receptor) | IC50 [1] | IC50 [2] | Ki [2] | IC50 [3] | IC50 (Vasopressin V1a receptor)

C[C@H](CCC(=O)O)[C@H]1CC[C@H]2[C@@H]3[C@H](O)C[C@@H]4C[C@H](O)CC[C@]4(C)[C@H]3C[C@H](O)[C@]12C [CHOLIC ACID]
Not Active: IC50 (Melanocortin receptor 3) | IC50 (Thromboxane-A synthase) | IC50 (Substance-K receptor) | IC50 [1] | IC50 [2] | Ki [2] | IC50 [3] | IC50 (Vasopressin V1a receptor)

CC(C)C(Br)C(=O)NC(N)=O (stereo not drawn) [BROMISOVALUM]
Not Active: IC50 (Melanocortin receptor 3) | IC50 (Thromboxane-A synthase) | IC50 (Substance-K receptor) | IC50 [1] | IC50 [2] | Ki [2] | IC50 [3] | IC50 (Vasopressin V1a receptor)

C[C@H]1c2cccc(O)c2C(=O)C2=C(O)[C@]3(O)C(=O)C(C(N)=O)=C(O)[C@@H](N(C)C)[C@@H]3[C@@H](O)[C@@H]21.O [DOXYCYCLINE]
Not Active: IC50 (Melanocortin receptor 3) | IC50 (Thromboxane-A synthase) | IC50 (Substance-K receptor) | IC50 [1] | IC50 [2] | Ki [2] | IC50 [3] | IC50 (Vasopressin V1a receptor)

CNCCCN1c2ccccc2CCc2ccccc21 [DESIPRAMINE]
Not Active: IC50 (Melanocortin receptor 3) | IC50 (Thromboxane-A synthase) | IC50 (Substance-K receptor) | IC50 [1] | IC50 [2] | Ki [2] | IC50 [3] | IC50 (Vasopressin V1a receptor)

C[C@H](CS)C(=O)N1CCC[C@H]1C(=O)O [CAPTOPRIL]
Not Active: IC50 (Melanocortin receptor 3) | IC50 (Thromboxane-A synthase) | IC50 (Substance-K receptor) | IC50 [1] | IC50 [2] | Ki [2] | IC50 [3] | IC50 (Vasopressin V1a receptor)

CC(O)CO (stereo not drawn) [PROPYLENE GLYCOL]
Not Active: IC50 (Melanocortin receptor 3) | IC50 (Thromboxane-A synthase) | IC50 (Substance-K receptor) | IC50 [1] | IC50 [2] | Ki [2] | IC50 [3] | IC50 (Vasopressin V1a receptor)

Cc1c(O)c(=O)ccn1C [DEFERIPRONE]
Not Active: IC50 (Melanocortin receptor 3) | IC50 (Thromboxane-A synthase) | IC50 (Substance-K receptor) | IC50 [1] | IC50 [2] | Ki [2] | IC50 [3] | IC50 (Vasopressin V1a receptor)

CC(C)[C@@]1(NC(=O)[C@@H]2C[C@@H]3c4cccc5[nH]cc(c45)C[C@H]3N(C)C2)O[C@@]2(O)[C@@H]3CCCN3C(=O)[C@H](Cc3ccccc3)N2C1=O.CS(=O)(=O)O [DIHYDROERGOCRISTINE MESYLATE]
Not Active: IC50 (Melanocortin receptor 3) | IC50 (Thromboxane-A synthase) | IC50 (Substance-K receptor) | IC50 [1] | IC50 [2] | Ki [2] | IC50 [3] | IC50 (Vasopressin V1a receptor)

C1CCC(C(CC2CCCCN2)C2CCCCC2)CC1 (stereo not drawn) [PERHEXILINE]
Not Active: IC50 (Melanocortin receptor 3) | IC50 (Thromboxane-A synthase) | IC50 (Substance-K receptor) | IC50 [1] | IC50 [2] | Ki [2] | IC50 [3] | IC50 (Vasopressin V1a receptor)

c1ccc2c(c1)c1cccc3ccc4cccc2c4c31 [BENZO[E]PYRENE]
Not Active: IC50 (Melanocortin receptor 3) | IC50 (Thromboxane-A synthase) | IC50 (Substance-K receptor) | IC50 [1] | IC50 [2] | Ki [2] | IC50 [3] | IC50 (Vasopressin V1a receptor)

C[C@]12CC[C@@H]3c4ccc(O)cc4CC[C@H]3[C@@H]1CCC2=O [ESTRONE]
Not Active: IC50 (Melanocortin receptor 3) | IC50 (Thromboxane-A synthase) | IC50 (Substance-K receptor) | IC50 [1] | IC50 [2] | Ki [2] | IC50 [3] | IC50 (Vasopressin V1a receptor)

CNCCc1ccccn1 [BETAHISTINE]
Not Active: IC50 (Melanocortin receptor 3) | IC50 (Thromboxane-A synthase) | IC50 (Substance-K receptor) | IC50 [1] | IC50 [2] | Ki [2] | IC50 [3] | IC50 (Vasopressin V1a receptor)

Cc1ccccc1N1C(=O)c2cc(S(N)(=O)=O)c(Cl)cc2NC1C (stereo not drawn) [METOLAZONE]
Not Active: IC50 (Melanocortin receptor 3) | IC50 (Thromboxane-A synthase) | IC50 (Substance-K receptor) | IC50 [1] | IC50 [2] | Ki [2] | IC50 [3] | IC50 (Vasopressin V1a receptor)

O=C1CC[C@@H](N2C(=O)c3ccccc3C2=O)C(=O)N1
Not Active: IC50 (Melanocortin receptor 3) | IC50 (Thromboxane-A synthase) | IC50 (Substance-K receptor) | IC50 [1] | IC50 [2] | Ki [2] | IC50 [3] | IC50 (Vasopressin V1a receptor)

Nc1c(Br)cc(Br)cc1CN[C@H]1CC[C@H](O)CC1 [AMBROXOL]
Not Active: IC50 (Melanocortin receptor 3) | IC50 (Thromboxane-A synthase) | IC50 (Substance-K receptor) | IC50 [1] | IC50 [2] | Ki [2] | IC50 [3] | IC50 (Vasopressin V1a receptor)
